Test results taken from the NIST ThermoML archive (doi:10.1021/je060343y).

Tests used:
[1] = 101 kPa, Liquid
[2] = φn = volume fraction of the nth substance listed; conditions: 101 kPa, Liquid

CNC(C)=O [N-methylacetamide]
[1]
Conditions	mass density [kg/m3]	speed of sound [m/s]
303.15 K	951.3	1367
308.15 K	945.9	1362
313.15 K	943.6	1334
318.15 K	939.9	1319

CNC(C)=O [N-methylacetamide] + CCOC(=O)CC#N
[2], φ1 = 1
Conditions	mass density [kg/m3]	speed of sound [m/s]
303.15 K	951.3	1367
308.15 K	945.9	1362
313.15 K	943.6	1334
318.15 K	939.9	1319

CNC(C)=O [N-methylacetamide] + CCOC(=O)CCl
[2], φ1 = 1
Conditions	mass density [kg/m3]	speed of sound [m/s]
303.15 K	951.3	1367
308.15 K	945.9	1362
313.15 K	943.6	1334
318.15 K	939.9	1319

CNC(C)=O [N-methylacetamide] + CCOC(C)=O
[2]
Conditions	mass density [kg/m3]	speed of sound [m/s]
303.15 K, φ1 = 0.0538	893.87	1132
303.15 K, φ1 = 0.1843	903.06	1167
303.15 K, φ1 = 0.2972	910.76	1197
303.15 K, φ1 = 0.3991	917.49	1223
303.15 K, φ1 = 0.4982	923.67	1248
303.15 K, φ1 = 0.594	929.3	1271
303.15 K, φ1 = 0.6955	935.03	1295
303.15 K, φ1 = 0.7437	937.68	1306
303.15 K, φ1 = 0.9463	948.19	1354
303.15 K, φ1 = 1	951.3	1367
308.15 K, φ1 = 0.0537	887.58	1114
308.15 K, φ1 = 0.1841	896.86	1149
308.15 K, φ1 = 0.2969	904.58	1180
308.15 K, φ1 = 0.3988	911.43	1208
308.15 K, φ1 = 0.4979	917.94	1234
308.15 K, φ1 = 0.5937	923.93	1259
308.15 K, φ1 = 0.6952	930.02	1284
308.15 K, φ1 = 0.7434	932.86	1296
308.15 K, φ1 = 0.9488	943.96	1348
308.15 K, φ1 = 1	945.9	1362
313.15 K, φ1 = 0.0534	880.97	1097
313.15 K, φ1 = 0.1833	891.3	1132
313.15 K, φ1 = 0.2958	899.84	1161
313.15 K, φ1 = 0.3976	907.15	1188
313.15 K, φ1 = 0.4966	913.79	1214
313.15 K, φ1 = 0.5924	920.09	1238
313.15 K, φ1 = 0.6941	926.71	1263
313.15 K, φ1 = 0.7431	929.67	1274
313.15 K, φ1 = 0.946	941.22	1322
313.15 K, φ1 = 1	943.6	1334
318.15 K, φ1 = 0.0533	875.13	1074
318.15 K, φ1 = 0.1828	886.1	1113
318.15 K, φ1 = 0.2951	894.79	1144
318.15 K, φ1 = 0.3968	902.46	1172
318.15 K, φ1 = 0.4958	909.37	1198
318.15 K, φ1 = 0.5916	915.67	1223
318.15 K, φ1 = 0.6934	922.12	1249
318.15 K, φ1 = 0.7418	925.21	1261
318.15 K, φ1 = 0.9458	937.26	1309
318.15 K, φ1 = 1	939.9	1319

CCOC(C)=O [ethyl acetate]
[1]
Conditions	mass density [kg/m3]	speed of sound [m/s]
303.15 K	888.9	1119
308.15 K	882.6	1098
313.15 K	875.9	1081
318.15 K	869.6	1058

CCOC(C)=O [ethyl acetate] + CNC(C)=O
[2], φ2 = 0
Conditions	mass density [kg/m3]	speed of sound [m/s]
303.15 K	888.9	1119
308.15 K	882.6	1098
313.15 K	875.9	1081
318.15 K	869.6	1058

CCOC(=O)CCl [ethyl chloroethanoate]
[1]
Conditions	mass density [kg/m3]	speed of sound [m/s]
303.15 K	1139.29	1229
308.15 K	1132.5	1212
313.15 K	1125.9	1198
318.15 K	1119.9	1177

CCOC(=O)CCl [ethyl chloroethanoate] + CNC(C)=O
[2]
Conditions	mass density [kg/m3]	speed of sound [m/s]
303.15 K, φ2 = 0	1139.29	1229
303.15 K, φ2 = 0.0547	1128.33	1238
303.15 K, φ2 = 0.154	1110.27	1252
303.15 K, φ2 = 0.2473	1093.79	1265
303.15 K, φ2 = 0.2903	1085.92	1272
303.15 K, φ2 = 0.4356	1059.31	1293
303.15 K, φ2 = 0.5321	1041.12	1305
303.15 K, φ2 = 0.6203	1024.32	1317
303.15 K, φ2 = 0.7118	1006.88	1329
303.15 K, φ2 = 0.8656	977.31	1350
308.15 K, φ2 = 0	1132.5	1212
308.15 K, φ2 = 0.0547	1123.26	1221
308.15 K, φ2 = 0.154	1105.23	1235
308.15 K, φ2 = 0.2473	1088.2	1249
308.15 K, φ2 = 0.2902	1080.37	1256
308.15 K, φ2 = 0.4356	1053.83	1277
308.15 K, φ2 = 0.532	1036.02	1291
308.15 K, φ2 = 0.6202	1019.38	1304
308.15 K, φ2 = 0.7118	1002.05	1318
308.15 K, φ2 = 0.8656	972.28	1342
313.15 K, φ2 = 0	1125.9	1198
313.15 K, φ2 = 0.0545	1115.23	1207
313.15 K, φ2 = 0.1535	1098.23	1220
313.15 K, φ2 = 0.2466	1082.14	1233
313.15 K, φ2 = 0.2895	1074.53	1239
313.15 K, φ2 = 0.4347	1048.13	1259
313.15 K, φ2 = 0.5312	1030.46	1271
313.15 K, φ2 = 0.6194	1014.19	1283
313.15 K, φ2 = 0.7111	997.15	1296
313.15 K, φ2 = 0.8652	968.5	1317
318.15 K, φ2 = 0	1119.9	1177
318.15 K, φ2 = 0.0544	1109.19	1187
318.15 K, φ2 = 0.1533	1090.85	1202
318.15 K, φ2 = 0.2464	1073.98	1207
318.15 K, φ2 = 0.2892	1066.23	1212
318.15 K, φ2 = 0.4344	1040.02	1231
318.15 K, φ2 = 0.5308	1022.75	1244
318.15 K, φ2 = 0.6191	1007.06	1257
318.15 K, φ2 = 0.7108	990.68	1272
318.15 K, φ2 = 0.865	963.31	1296

CCOC(=O)CC#N [ethyl cyanoacetate]
[1]
Conditions	mass density [kg/m3]	speed of sound [m/s]
303.15 K	1051.4	1397
308.15 K	1046.5	1385
313.15 K	1040.8	1368
318.15 K	1034.7	1359

CCOC(=O)CC#N [ethyl cyanoacetate] + CNC(C)=O
[2]
Conditions	mass density [kg/m3]	speed of sound [m/s]
303.15 K, φ2 = 0	1051.4	1397
303.15 K, φ2 = 0.0529	1048.11	1396
303.15 K, φ2 = 0.186	1036.06	1391
303.15 K, φ2 = 0.2745	1027.82	1389
303.15 K, φ2 = 0.3672	1018.95	1386
303.15 K, φ2 = 0.4502	1010.93	1384
303.15 K, φ2 = 0.5435	1001.23	1380
303.15 K, φ2 = 0.5664	998.75	1379
303.15 K, φ2 = 0.7307	980.97	1375
303.15 K, φ2 = 0.8795	964.97	1370
308.15 K, φ2 = 0	1046.5	1385
308.15 K, φ2 = 0.0529	1041.91	1384
308.15 K, φ2 = 0.1862	1029.63	1380
308.15 K, φ2 = 0.2747	1021.42	1378
308.15 K, φ2 = 0.3675	1012.63	1375
308.15 K, φ2 = 0.4504	1004.44	1373
308.15 K, φ2 = 0.5438	994.68	1371
308.15 K, φ2 = 0.5666	992.26	1370
308.15 K, φ2 = 0.7309	974.66	1367
308.15 K, φ2 = 0.8796	958.76	1365
313.15 K, φ2 = 0	1040.8	1368
313.15 K, φ2 = 0.0528	1036.3	1366
313.15 K, φ2 = 0.1857	1024.28	1362
313.15 K, φ2 = 0.2741	1015.97	1359
313.15 K, φ2 = 0.3667	1007.36	1356
313.15 K, φ2 = 0.4497	999.41	1353
313.15 K, φ2 = 0.543	990.26	1349
313.15 K, φ2 = 0.5659	987.92	1348
313.15 K, φ2 = 0.7303	971.38	1343
313.15 K, φ2 = 0.8793	956.39	1337
318.15 K, φ2 = 0	1034.7	1359
318.15 K, φ2 = 0.0527	1030.52	1358
318.15 K, φ2 = 0.1854	1018.59	1356
318.15 K, φ2 = 0.2737	1010.48	1352
318.15 K, φ2 = 0.3663	1001.85	1348
318.15 K, φ2 = 0.4492	994.13	1345
318.15 K, φ2 = 0.5425	985.18	1341
318.15 K, φ2 = 0.5654	982.97	1340
318.15 K, φ2 = 0.7299	966.83	1332
318.15 K, φ2 = 0.8791	952.07	1324
